Data as given in patent US6410482B1, “(Het) arylsulfonylureas having an amino function, their presentation and their use as herbicides and plant growth regulators” (Hoechst Schering AgrEvo GmbH, priority 1996, dated 2002).

Key:
[1] = tested on: Sinapis alba, Stellaria media, Chrysanthemum segetum, and Lolium multiflorum; experiment: Post-emergence effect on weeds (greenhouse pot test, visual scoring); type: in vivo; details: applied post-emergence (three-leaf stage) at 0.3 kg to 0.005 kg of active ingredient per hectare; scored visually after about 3 to 4 weeks vs untreated controls
Procedure: Seeds or rhizome pieces of monocotyledonous and dicotyledonous weeds are placed in sandy loam soil in plastic pots, covered with soil and grown in a greenhouse under good growth conditions. Three weeks after sowing, the test plants are treated in the three-leaf stage. The compounds of the formula (I) or salts thereof according to the invention which have been formulated as wettable powders or as emulsion concentrates are sprayed in various dosages onto the green parts of the plants at an application rate of 600 to 800 l of water/ha (converted). After the test plants have remained in the greenhouse for about 3 to 4 weeks under ideal growth conditions, the effect of the preparations is scored visually by comparison with untreated controls. The agents according to the invention also have a good herbicidal post-emergence activity against a broad range of economically important grass weeds and broad-leaved weeds.

[2] = tested on: Sinapis alba, Stellaria media, Chrysanthemum segetum, and Lolium multiflorum; experiment: Pre-emergence effect on weeds (greenhouse pot test, visual scoring); type: in vivo; details: applied pre-emergence at 0.3 kg to 0.005 kg of active ingredient per hectare; scored visually after 3 to 4 weeks vs untreated controls
Text: Seeds or rhizome pieces of monocotyledonous and dicotyledonous weed plants are placed in sandy loam soil in plastic pots and covered with soil. The compounds of the formula (I) or salts thereof according to the invention which have been formulated in the form of wettable powders or emulsion concentrates are then applied to the surface of the soil cover in the form of aqueous suspensions or emulsions at an application rate of […] of water/ha (converted), in various dosages.
After the treatment, the pots are placed in a greenhouse and kept under good growth conditions for the weeds. After the test plants have emerged after a period of 3 to 4 weeks, the damage to the plants or the negative effect on the emergence is scored visually by comparison with untreated controls. As shown by the test results, the compounds according to the invention have a good herbicidal pre-emergence activity against a broad spectrum of grass weeds and broad-leaved weeds.

COC(=O)c1ccc(N=CN(C)C)cc1S(=O)(=O)NC(=O)Nc1nc(Cl)cc(OC)n1 [Example 2-39]
herbicidal activity, post-emergence [1]: very good herbicidal activity
herbicidal activity, pre-emergence [2]: very good herbicidal activity

COc1cc(OC)nc(NC(=O)[N-]S(=O)(=O)c2c(N=CN(C)C)c(C)nn2C)n1.[Na+] [Example 10-2]
herbicidal activity, post-emergence [1]: very good herbicidal activity
herbicidal activity, pre-emergence [2]: very good herbicidal activity

COC(=O)c1ccc(N=CN2CCCC2)cc1S(=O)(=O)NC(=O)Nc1nc(OC)cc(OC)n1 [Example 2-36]
herbicidal activity, post-emergence [1]: very good herbicidal activity
herbicidal activity, pre-emergence [2]: very good herbicidal activity

COc1cc(OC)nc(NC(=O)NS(=O)(=O)c2cc(N=CN(C)C)ccc2S(C)(=O)=O)n1 [Example 2-21]
herbicidal activity, post-emergence [1]: very good herbicidal activity
herbicidal activity, pre-emergence [2]: very good herbicidal activity

COc1cc(OC)nc(NC(=O)NS(=O)(=O)c2cc(N=CN(C)C)ccc2C(=O)N(C)C)n1 [Example 2-15, N,N-dimethyl-2-[[[[(4,6-dimethoxypyrimidin-2-yl)-amino]carbonyl]amino]sulfonyl]-4-(2-dimethylamino-1-azaethenyl)-benzamide]
melting point: 140 to 141 °C (dec.)
herbicidal activity, post-emergence [1]: very good herbicidal activity
herbicidal activity, pre-emergence [2]: very good herbicidal activity

COC(=O)c1ccc(N=C(C(C)C)N(C)C)cc1S(=O)(=O)NC(=O)Nc1nc(OC)cc(OC)n1 [Example 2-26]
herbicidal activity, post-emergence [1]: very good herbicidal activity
herbicidal activity, pre-emergence [2]: very good herbicidal activity

COc1cc(OC)nc(NC(=O)[N-]S(=O)(=O)c2sccc2N=C(C(C)C)N(C)C)n1.[Na+] [Example 9-4]
herbicidal activity, post-emergence [1]: very good herbicidal activity
herbicidal activity, pre-emergence [2]: very good herbicidal activity

COc1cc(OC)nc(NC(=O)[N-]S(=O)(=O)c2sccc2N=C(C)N(C)C)n1.[Na+] [Example 9-2]
herbicidal activity, post-emergence [1]: very good herbicidal activity
herbicidal activity, pre-emergence [2]: very good herbicidal activity

CCN(C=Nc1ccc(S(=O)(=O)CC)c(S(=O)(=O)NC(=O)Nc2nc(OC)cc(OC)n2)c1)CC [Example 2-50]
herbicidal activity, post-emergence [1]: very good herbicidal activity
herbicidal activity, pre-emergence [2]: very good herbicidal activity

COc1cc(OC)nc(NC(=O)NS(=O)(=O)c2sccc2N=C(C)N(C)C)n1 [Example 9-1]
herbicidal activity, post-emergence [1]: very good herbicidal activity
herbicidal activity, pre-emergence [2]: very good herbicidal activity

CCN(C=Nc1ccc(C(=O)OC)c(S(=O)(=O)[N-]C(=O)Nc2nc(OC)cc(OC)n2)c1)CC.[Na+] [Example 2-49]
herbicidal activity, post-emergence [1]: very good herbicidal activity
herbicidal activity, pre-emergence [2]: very good herbicidal activity

CCS(=O)(=O)c1ccc(N=CN(C)C)cc1S(=O)(=O)NC(=O)Nc1nc(OC)cc(OC)n1 [Example 2-22]
herbicidal activity, post-emergence [1]: very good herbicidal activity
herbicidal activity, pre-emergence [2]: very good herbicidal activity

COC(=O)c1ccc(N=CN(C)C)cc1S(=O)(=O)NC(=O)Nc1nc(OC)cc(OC)n1 [Example 2-10, methyl 2-[[[[(4,6-dimethoxypyrimidin-2-yl)amino]carbonyl]amino]sulfonyl]-4-(2-dimethylamino-1-azaethenyl)-benzoate]
melting point: 73 to 75 °C
herbicidal activity, post-emergence [1]: very good herbicidal activity
herbicidal activity, pre-emergence [2]: very good herbicidal activity

COc1cc(OC)nc(NC(=O)NS(=O)(=O)c2sccc2N=C(C(C)C)N(C)C)n1 [Example 9-3]
herbicidal activity, post-emergence [1]: very good herbicidal activity
herbicidal activity, pre-emergence [2]: very good herbicidal activity

COc1cc(OC)nc(NC(=O)NS(=O)(=O)c2sccc2N=CN(C)C)n1 [Example 9-5]
herbicidal activity, post-emergence [1]: very good herbicidal activity
herbicidal activity, pre-emergence [2]: very good herbicidal activity

COc1cc(OC)nc(NC(=O)NS(=O)(=O)c2ccccc2N=CN(C)C)n1 [Example 1-1, N-[(4,6-dimethoxypyrimidin-2-yl)aminocarbonyl]-2-(2-dimethylamino-1-azaethenyl)benzenesulfonamide]
melting point: 209 to 210 °C (dec.)
herbicidal activity, post-emergence [1]: very good herbicidal activity
herbicidal activity, pre-emergence [2]: very good herbicidal activity

COc1cc(OC)nc(NC(=O)NS(=O)(=O)c2ncccc2N=C(C(C)C)N(C)C)n1 [Example 4-17]
herbicidal activity, post-emergence [1]: very good herbicidal activity
herbicidal activity, pre-emergence [2]: very good herbicidal activity

COc1cc(OC)nc(NC(=O)[N-]S(=O)(=O)c2ccccc2N=CN(C)C)n1.[Na+] [Example 1-14]
herbicidal activity, post-emergence [1]: very good herbicidal activity
herbicidal activity, pre-emergence [2]: very good herbicidal activity

COc1cc(OC)nc(NC(=O)NS(=O)(=O)c2ncccc2N=CN(C)C)n1 [Example 4-2]
herbicidal activity, post-emergence [1]: very good herbicidal activity

CCC(=Nc1cccnc1S(=O)(=O)NC(=O)Nc1nc(OC)cc(OC)n1)N(C)C [Example 4-19]
herbicidal activity, post-emergence [1]: very good herbicidal activity
herbicidal activity, pre-emergence [2]: very good herbicidal activity

COc1cc(OC)nc(NC(=O)NS(=O)(=O)c2ncccc2N=C(C)N(C)C)n1 [Example 4-18]
herbicidal activity, post-emergence [1]: very good herbicidal activity
herbicidal activity, pre-emergence [2]: very good herbicidal activity

CCN(C=Nc1ccccc1S(=O)(=O)NC(=O)Nc1nc(OC)cc(OC)n1)CC [Example 1-5]
herbicidal activity, post-emergence [1]: very good herbicidal activity
herbicidal activity, pre-emergence [2]: very good herbicidal activity

CCN(C=Nc1ccc(C(=O)OC)c(S(=O)(=O)NC(=O)Nc2nc(OC)cc(OC)n2)c1)CC [Example 2-48]
herbicidal activity, post-emergence [1]: very good herbicidal activity
herbicidal activity, pre-emergence [2]: very good herbicidal activity

CCC(=Nc1ccc(C(=O)OC)c(S(=O)(=O)NC(=O)Nc2nc(OC)cc(OC)n2)c1)N(C)C [Example 2-24]
herbicidal activity, post-emergence [1]: very good herbicidal activity
herbicidal activity, pre-emergence [2]: very good herbicidal activity

COc1cc(OC)nc(NC(=O)NS(=O)(=O)c2cccc(N=CN(C)C)c2)n1 [Example 2-47]
herbicidal activity, post-emergence [1]: very good herbicidal activity
herbicidal activity, pre-emergence [2]: very good herbicidal activity

COC(=O)c1ccc(N=CN2CCCCC2)cc1S(=O)(=O)NC(=O)Nc1nc(OC)cc(OC)n1 [Example 2-37]
herbicidal activity, post-emergence [1]: very good herbicidal activity
herbicidal activity, pre-emergence [2]: very good herbicidal activity

COc1cc(OC)nc(NC(=O)[N-]S(=O)(=O)c2sccc2N=CN(C)C)n1.[Na+] [Example 9-6]
herbicidal activity, post-emergence [1]: very good herbicidal activity
herbicidal activity, pre-emergence [2]: very good herbicidal activity

COC(=O)c1ccc(N=CN(C)C)cc1S(=O)(=O)NC(=O)Nc1nc(C)nc(OC)n1 [Example 2-41]
herbicidal activity, post-emergence [1]: very good herbicidal activity
herbicidal activity, pre-emergence [2]: very good herbicidal activity

COc1cc(OC)nc(NC(=O)NS(=O)(=O)c2c(N=CN(C)C)c(C)nn2C)n1 [Example 10-1]
herbicidal activity, post-emergence [1]: very good herbicidal activity
herbicidal activity, pre-emergence [2]: very good herbicidal activity
